These results are taken from US8895559B2, “Quinoxalines derivatives and pharmaceutical compositions and kits” (Merck Patent GmbH, priority 2010, dated 2014).

Each structure is given as a SMILES string. Bounds are passed on as bounds.

The test system of the first assay is neutrophils.
Test: not given
Conditions: treatment of neutrophils; Thelen et al. 1994; cited from earlier work.
As for `COC[C@H]1OC(=O)c2coc3c2[C@@]1(C)C1=C(C3=O)[C@@H]2CCC(=O)[C@@]2(C)C[C@H]1OC(C)=O` [wortmannin], the “fMLP-induced respiratory burst response” value is on record as “prevents”.

For a further assay, the system named is neutrophils.
Test: not given
To be noted: cited from earlier work.
On to `COC[C@H]1OC(=O)c2coc3c2[C@@]1(C)C1=C(C3=O)[C@@H]2CCC(=O)[C@@]2(C)C[C@H]1OC(C)=O` [wortmannin], for which the neutrophil migration entry is on record as “block” and the superoxide release result is listed as “block”.

Take `O=c1cc(N2CCOCC2)oc2c(-c3ccccc3)cccc12` [LY294002]: the neutrophil migration entry is on record as “block” and the superoxide release entry is “block”.

A further assay deals with phospholipases.
Test: not given
Conditions: cited from earlier work.
In the case of `O=c1cc(N2CCOCC2)oc2c(-c3ccccc3)cccc12` [LY294002], the “inhibitory activity on phospholipases” value is given as “slight inhibitory activity”.

The test system of another assay is PI3K. As to the kind of experiment: Cellular testing of PI3K inhibitors: P-S473-PKB Luminex assay in PC3 cells. Format: cell-based. To be noted: PI3K-dependent phosphorylation of PKB at Serin 473 in PC3 cells. The protocol:
Description of the Method for the Cellular Testing of PI3K Inhibitors
The cellular assay for determination of the P-S473-PKB level is carried out as a Luminex assay in 96-well format in PC3 cells.
PC3 cells are sown out with 20,000 cells per well in 100 μl medium (45% RPMI1460/45% Ham's F12/10% FCS) and incubated on the following day for 30 min with a serial dilution of the test substance (7 concentrations) under serum-free conditions. […] The lysates are incubated overnight at 4° C. with shaking with Luminex beads to which an anti-total PKB antibody is coupled. The detection is carried out on the following day by addition of a P-S473-PKB antibody and a species-specific PE-labelled secondary antibody. The detection of P-S473-PKB is carried out by measurement in a Luminex 100 instrument by determination of 100 events per cavity in a measurement time of 60 sec. […] The values of the preparations treated with test substance are calculated from this as percent of control, and IC50 values are determined by means of RS1.
The IC50 is the concentration that gives 50% inhibition. Compound `COc1ccc(CCCO)c(Nc2nc3ccccc3nc2NS(=O)(=O)c2cn(C)cn2)c1` [reference compound] returned an IC50 of 370 nM.

`COc1ccc(CCCS(C)(=O)=O)c(Nc2nc3ccccc3nc2NS(=O)(=O)c2cn(C)cn2)c1` [reference compound] returned an IC50 of 2600 nM.

Still in this assay, the particulars now being: PI3 kinase inhibition, cell.
`COc1cc(Nc2nc3ccccc3nc2NS(=O)(=O)c2cn(C)cn2)c(OC)c(OC)c1` [Compound A92] showed an IC50 of 100 to 10000 nM.

`CCCS(=O)(=O)Nc1nc2ccccc2nc1Nc1cc(OC)cc(OC)c1OCCOCCO` [Compound A56] had an IC50 of 100 to 10000 nM.

`COc1cc(Nc2nc3ccccc3nc2NS(=O)(=O)c2ccc(C#N)cc2)c(CCCCO)c(OC)c1` [Compound A6]: the IC50 lay in the range of 1 to 100 nM.

As for `COc1cc(Nc2nc3ccccc3nc2NS(=O)(=O)C(F)(F)F)c(OCCOCCO)c(OC)c1` [Compound A49], the IC50 was 1 to 100 nM.

As for `COc1cc(Nc2nc3ccccc3nc2NS(=O)(=O)c2cn(C)cn2)c(OCCO)c(OC)c1` [Compound A89], the IC50 lay in the range of 1 to 100 nM.

`COc1cc(Nc2nc3ccccc3nc2NS(=O)(=O)c2ccc(CNC(C)=O)cc2)c(OCCCO)c(OC)c1` [Compound A132, N-(4-{3-[2-(3-hydroxypropoxy)-3,5-dimethoxyphenylamino]quinoxalin-2-ylsulfamoyl}benzyl)acetamide] yielded an IC50 of 1 to 100 nM.

`COc1cc(Nc2nc3ccccc3nc2NS(=O)(=O)c2ccc(C#N)cc2)c(OCCCO)c(OC)c1` [Compound A82] returned an IC50 of 1 to 100 nM.

The compound `COc1cc(Nc2nc3ccccc3nc2NS(=O)(=O)c2ccc(C(=O)NCC(F)(F)F)cc2)c(OCCCO)c(OC)c1` [Compound A95] registered an IC50 of 100 to 10000 nM.

Take `COc1cc(Nc2nc3ccccc3nc2NS(=O)(=O)c2ccccc2)c(OCCOCCO)c(OC)c1` [Compound A58]: the IC50 was in the range of 1 to 100 nM.

With `COc1cc(Nc2nc3ccccc3nc2NS(=O)(=O)c2ccn(C)n2)c(CCCCO)c(OC)c1` [Compound A117], the IC50 fell in the range of 1 to 100 nM.

For the compound `COc1cc(Nc2nc3ccccc3nc2NS(=O)(=O)c2cn(C)c(CN(C)C)n2)c(OCCC(C)(C)O)c(OC)c1` [Compound A128], the IC50 lay in the range of 100 to 10000 nM.

Turning to `COc1cc(Nc2nc3ccccc3nc2NS(=O)(=O)c2cn(C)cn2)c2c(c1)OCO2` [Compound A1], the IC50 lay within 100 to 10000 nM.

`COc1cc(Nc2nc3ccccc3nc2NS(=O)(=O)c2ccc(C#N)cc2)c(CCCN(C)C)c(OC)c1` [Compound A2]: the IC50 was 100 to 10000 nM.

Consider `COc1cc(Nc2nc3ccccc3nc2NS(=O)(=O)c2ccc(C#N)s2)c(OCCOCCO)c(OC)c1` [Compound A59], for which the IC50 fell in the range of 1 to 100 nM.

In turn, `COc1cc(Nc2nc3ccccc3nc2NS(=O)(=O)c2cn(C)cn2)c2c(c1)OC(CO)CO2` (stereo not drawn) [Compound A124] returned an IC50 of 100 to 10000 nM.

`COc1cc(Nc2nc3ccccc3nc2NS(=O)(=O)c2ccc(NC(C)=O)cc2)c(OCCCO)c(OC)c1` [Compound A50] registered an IC50 of 1 to 100 nM.

`COc1cc(Nc2nc3ccccc3nc2NS(=O)(=O)c2cncs2)c(OCCC(C)O)c(OC)c1` (stereo not drawn) [Compound A101] returned an IC50 of 1 to 100 nM.

Consider `COc1cc(Nc2nc3ccccc3nc2NS(=O)(=O)c2cn(C)cn2)c(OCCS(=O)(=O)CCO)c(OC)c1` [Compound A77], for which the IC50 lay within 100 to 10000 nM.

`CCc1c(Nc2nc3ccccc3nc2NS(=O)(=O)c2ccc(C(=O)N(C)C)cc2)cc(OC)cc1OC` [Compound A13] registered an IC50 of 100 to 10000 nM.

In turn, `COc1cc(Nc2nc3ccccc3nc2NS(=O)(=O)c2cnn(C)c2)c(OCCCO)c(OC)c1` [Compound A44] showed an IC50 of 1 to 100 nM.

Turning to `COc1cc(Nc2nc3ccccc3nc2NS(=O)(=O)c2cn(C)cn2)c(OCC[S+](C)[O-])c(OC)c1` (stereo not drawn) [Compound A52], the IC50 lay in the range of 100 to 10000 nM.

Compound `COc1cc(Nc2nc3ccccc3nc2NS(=O)(=O)c2cccnc2)c(OCCOCCO)c(OC)c1` [Compound A65] gave a half-inhibitory concentration (IC50) of 100 to 10000 nM.

`COc1cc(Nc2nc3ccccc3nc2NS(=O)(=O)c2ccc(C#N)s2)c(OCCCO)c(OC)c1` [Compound A51] yielded an IC50 of 1 to 100 nM.

The compound `COc1cc(Nc2nc3ccccc3nc2NS(=O)(=O)c2ccncc2)c(OCCCO)c(OC)c1` [Compound A21] displayed an IC50 of more than 10000 nM.

For a further assay, the target named is CK2 protein kinase (Homo sapiens, UniProt P68400).
Sequence of CK2 protein kinase (P68400 whole entry): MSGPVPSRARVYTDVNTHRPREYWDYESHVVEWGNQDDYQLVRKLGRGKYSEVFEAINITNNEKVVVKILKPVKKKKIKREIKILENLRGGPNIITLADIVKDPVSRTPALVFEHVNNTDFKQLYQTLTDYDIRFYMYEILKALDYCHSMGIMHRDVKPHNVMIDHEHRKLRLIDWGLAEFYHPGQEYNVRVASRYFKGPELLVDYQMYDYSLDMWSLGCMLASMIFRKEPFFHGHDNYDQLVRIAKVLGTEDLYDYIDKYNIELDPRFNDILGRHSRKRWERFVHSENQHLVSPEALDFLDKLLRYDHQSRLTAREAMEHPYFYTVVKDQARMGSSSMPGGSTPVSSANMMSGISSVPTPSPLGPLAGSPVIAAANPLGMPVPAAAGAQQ
Test: not given
To be noted: cited from earlier work.
Take `O=c1cc(N2CCOCC2)oc2c(-c3ccccc3)cccc12` [LY294002]: the IC50 is 5000 to 10000 nM.
